Measured values: PubChem BioAssay (NCI)
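96-well plates; 48 h exposure; 5 concentrations. Endpoints by linear interpolation between flanking doses. Not reached: highest tested concentration assigned. TGI: concentration producing complete growth inhibition.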

Tests used:
Assay in all cases: inhibition of tumour cell growth, NCI panel, 48 h
ACHN renal = system: ACHN renal
SNB-19 CNS = system: SNB-19 CNS
SK-MEL-28 melanoma = system: SK-MEL-28 melanoma
UACC-257 melanoma = system: UACC-257 melanoma
COLO 205 colon = system: COLO 205 colon
LOX IMVI melanoma = system: LOX IMVI melanoma
CAKI-1 renal = system: CAKI-1 renal
CCRF-CEM leukemia = system: CCRF-CEM leukemia
HL-60(TB) leukemia = system: HL-60(TB) leukemia
EKVX NSCLC = system: EKVX NSCLC
SR leukemia = system: SR leukemia
U251 CNS = system: U251 CNS
HT29 colon = system: HT29 colon
T-47D breast = system: T-47D breast
K-562 leukemia = system: K-562 leukemia
HOP-92 NSCLC = system: HOP-92 NSCLC
MALME-3M melanoma = system: MALME-3M melanoma
SF-539 CNS = system: SF-539 CNS
RXF 393 renal = system: RXF 393 renal

SMILES | TGI (ACHN renal) [µM] | TGI (SNB-19 CNS) [µM] | TGI (SK-MEL-28 melanoma) [µM] | TGI (UACC-257 melanoma) [µM] | TGI (COLO 205 colon) [µM] | TGI (LOX IMVI melanoma) [µM] | TGI (CAKI-1 renal) [µM] | TGI (CCRF-CEM leukemia) [µM] | TGI (HL-60(TB) leukemia) [µM] | TGI (EKVX NSCLC) [µM] | TGI (SR leukemia) [µM] | TGI (U251 CNS) [µM] | TGI (HT29 colon) [µM] | TGI (T-47D breast) [µM] | TGI (K-562 leukemia) [µM] | TGI (HOP-92 NSCLC) [µM] | TGI (MALME-3M melanoma) [µM] | TGI (SF-539 CNS) [µM] | TGI (RXF 393 renal) [µM]
CN1C(=O)C2(C=CC(O)CC2)c2ccccc21 (stereo unspecified) | > 100 | > 100 | > 100 | > 100 | > 100 | > 100 | > 100 | > 100 | > 100 | > 100 | > 100 | > 100 | > 100 | > 100 | > 100 | > 100 | – | – | –
N#CC(=N)c1ncn(-c2ccc(N)cc2)c1N | > 100 | > 100 | > 100 | > 100 | > 100 | > 100 | > 100 | > 100 | > 100 | > 100 | > 100 | > 100 | > 100 | > 100 | > 100 | – | > 100 | > 100 | –
S=C1CCSc2c(ccc3ccccc23)N1 | > 100 | > 100 | > 100 | > 100 | > 100 | > 100 | > 100 | > 100 | > 100 | > 100 | > 100 | > 100 | > 100 | > 100 | > 100 | – | > 100 | – | > 100
C/C(CC(O)(/C=N/O)c1ccccc1)=N/O (stereo unspecified) | > 100 | > 100 | > 100 | > 100 | – | > 100 | > 100 | > 100 | – | > 100 | > 100 | > 100 | > 100 | > 100 | > 100 | – | > 100 | > 100 | –
Cc1ccc(/C(O)=C/C(=O)C(=O)NC23CC4CC(CC(C4)C2)C3)cc1 | – | – | > 10 | > 10 | > 10 | > 10 | > 10 | > 10 | > 10 | > 10 | > 10 | – | > 10 | > 10 | > 10 | > 10 | > 10 | – | > 10
Cn1c(=O)c2c(nc3n2CCCC(=O)N3CC(O)CCl)n(C)c1=O (stereo unspecified) | > 100 | > 100 | > 100 | > 100 | > 100 | > 100 | > 100 | > 100 | > 100 | > 100 | > 100 | > 100 | > 100 | > 100 | > 100 | > 100 | – | – | > 100
COC1CN(C)C(=Nc2cccc3ccccc23)S1 (stereo unspecified) | > 10 | > 10 | > 10 | > 10 | > 10 | > 10 | > 10 | > 10 | > 10 | – | > 10 | > 10 | > 10 | > 10 | > 10 | > 10 | > 10 | > 10 | –
CC1SCc2nc3ccccc3n21 (stereo unspecified) | > 100 | > 100 | > 100 | > 100 | > 100 | > 100 | > 100 | > 100 | > 100 | > 100 | – | > 100 | > 100 | > 100 | > 100 | > 100 | > 100 | > 100 | > 100
COc1cc(/C=N/n2c(-c3ccccc3)nn(C(C)=O)c2=O)cc(OC)c1OC | > 64.6 | > 52.3 | > 80.6 | > 39.3 | 4.55 | > 100 | > 100 | > 100 | 9.68 | 99.2 | – | > 44.6 | > 44.3 | > 100 | > 100 | > 89.7 | > 46.6 | 8.54 | > 88.4
O=C1CSC(c2ccccc2[N+](=O)[O-])N1c1ccc(-c2ccc(-n3c(-c4ccccc4)nc4ccccc4c3=O)cc2)cc1 (stereo unspecified) | > 100 | > 100 | > 100 | > 100 | > 100 | > 100 | > 100 | > 100 | > 100 | > 100 | > 100 | > 100 | > 100 | > 100 | > 100 | > 100 | > 100 | > 100 | –
CCOC(=O)C(Cc1ccc(OC(=O)c2ccc(OC)cc2)cc1)NC(=O)C(F)(F)F (stereo unspecified) | > 100 | > 100 | – | > 100 | > 100 | > 100 | > 100 | > 100 | > 100 | > 100 | – | > 100 | > 100 | > 100 | > 100 | > 100 | > 100 | > 100 | 73.2
Cc1cc(Cc2cc(C)c(NC(=O)C(=O)C3CCC4=C(SC5C=CC=CC5N4)C3=O)c(C(C)C)c2)cc(C(C)C)c1NC(=O)C(=O)C1CCC2=C(SC3C=CC=CC3N2)C1=O (stereo unspecified) | > 100 | – | > 100 | > 100 | > 100 | > 100 | > 100 | > 100 | > 100 | > 100 | > 100 | > 100 | > 100 | > 100 | > 100 | > 100 | – | > 100 | > 100
O=c1[nH]nc(Cc2c[nH]c3ccccc23)o1 | > 100 | > 100 | > 100 | > 100 | > 100 | > 100 | > 100 | > 100 | > 100 | > 100 | – | > 100 | > 100 | > 100 | > 100 | > 100 | > 100 | > 100 | > 100
NC(=O)Cc1nc2c(N)ncnc2n1C1OC(CO)C(O)C1O (stereo unspecified) | > 100 | > 100 | > 100 | > 100 | > 100 | > 100 | > 100 | > 100 | > 100 | > 100 | > 100 | > 100 | > 100 | > 100 | > 100 | > 100 | > 100 | > 100 | –
CC1(C)OC(=O)N(c2ccccc2)C12C=Cc1cccc([N+](=O)[O-])c1O2 (stereo unspecified) | > 100 | > 100 | > 100 | > 100 | > 100 | > 100 | > 100 | > 100 | 58.7 | > 100 | 50.2 | > 100 | > 100 | 94.9 | > 100 | > 100 | – | – | > 100
CC1=C(c2ccccc2)NC(=S)C(C)C(c2ccccc2)=N1 (stereo unspecified) | > 100 | > 100 | > 100 | > 100 | > 100 | > 100 | > 100 | 47.1 | 35.1 | > 100 | > 100 | > 100 | > 100 | > 100 | 28.6 | – | > 100 | 30.9 | 61.6
Cc1c2c(c(O)c3c(O)cccc13)C(=O)C1(O)C(O)=C(C(=O)NCNc3ccc(C(N)=O)cn3)C(=O)C(N(C)C)C1C2 (stereo unspecified) | – | – | 14.6 | > 100 | > 100 | > 100 | 48.4 | 8.31 | – | > 100 | 9.53 | 18.5 | > 100 | > 100 | 6.26 | 6.92 | > 100 | 7.42 | 20.1
O=[N+]([O-])C(=C(N1CCOCC1)N1CCOCC1)/C(Cl)=C(\Cl)Br | 54 | > 100 | 33.8 | 31.8 | 29.6 | 41.1 | – | 9.49 | 16.9 | 37.9 | 37.1 | 39.9 | 44.9 | 32.1 | 60.2 | 31 | 30.5 | 57.9 | –
CC(=O)O[C@H]1CC[C@@]2(C)C(=CC[C@@H]3[C@@H]2CC[C@]2(C)c4c(C)nn(-c5ccccc5)c4C[C@@H]32)C1 | 61.1 | > 100 | > 100 | > 100 | 36.2 | 27.6 | 47.2 | 56.9 | 77 | 53.7 | 65 | > 100 | > 100 | > 100 | > 100 | 70.8 | – | – | 19.3
CN(C)CCn1c(=O)c2ccc(NCCN3CCNCC3)c3c(=O)c4ccccc4n(c1=O)c23 | 15.7 | 23.9 | 25.5 | 17.3 | 13 | 11.9 | 10.2 | 4.4 | 18.4 | 18.6 | 0.322 | 24.8 | 18.8 | 28.9 | 6.85 | 9.59 | 17 | 9 | –
NC(=O)NCCCC(NC(=O)OCCCCCCn1ccc(=O)[nH]c1=O)C(=O)O (stereo unspecified) | > 100 | > 100 | > 100 | > 100 | > 100 | > 100 | > 100 | > 100 | > 100 | > 100 | > 100 | > 100 | > 100 | > 100 | > 100 | > 100 | – | > 100 | > 100
NCCCC[C@H](N)C(=O)Nc1ccc(-c2nc3ccccc3s2)cc1 | 55 | 32.3 | 33.8 | > 100 | 33.6 | 72 | > 100 | 23.6 | – | 23.9 | 36.2 | 29.4 | 30.1 | > 100 | 36.3 | > 100 | 34.9 | – | > 100
C=C(CCC/C(C)=C/C=C/[C@@H](C)CCCc1ccoc1)C[C@@H]1OC(=O)[C@H](C)[C@@H]1O | 16.2 | 17.8 | 19.1 | 15.1 | 20.5 | 21.8 | 20.1 | 24.6 | – | 19.4 | > 50 | 25.4 | > 50 | 26.2 | > 50 | 19.6 | 18.1 | 19.4 | 19.3
CCOC(=O)c1cc2/c(=C\c3ccc(N(C)C)cc3)c3ccccc3n2[n+]1C | 20.4 | 15.6 | 14 | 11.8 | 1.42 | 3.78 | 15.3 | > 24.6 | 2.37 | 21.5 | – | 11.8 | 12.7 | 24.6 | > 58 | 14.9 | – | 4.02 | 4.78
CS(=O)(=O)c1ccc(N=C/C=C/Nc2ccc(S(C)(=O)=O)cc2)cc1 | > 100 | > 100 | > 100 | > 100 | > 100 | – | > 100 | > 100 | > 100 | > 100 | > 100 | > 100 | > 100 | > 100 | > 100 | > 100 | > 100 | > 100 | > 100
COC1CC(COCc2ccccc2)CC(OC)O1 (stereo unspecified) | > 100 | – | – | > 100 | > 100 | > 100 | > 100 | 0.44 | 1.84 | > 100 | > 100 | – | > 100 | > 100 | > 100 | > 100 | – | > 100 | > 100
COc1ccc(CCCNC(=O)c2cc(OC)c(OC)cc2CCO)cc1OC | > 100 | > 100 | > 100 | > 100 | > 100 | > 100 | > 100 | – | > 100 | > 100 | > 100 | > 100 | > 100 | > 100 | > 100 | > 100 | – | > 100 | > 100
